Assay results from patent publication US8574563B2 (Bristol-Myers Squibb Company, priority 2006, dated 2013).

Tested on: HCV 1b-377-neo replicon cells
Test: HCV replicon assay, HCV 1b-377-neo replicon cells (1b FRET)
Assay type: cell-based, Hepatitis C virus genotype 1b
Conditions: Hepatitis C virus, HCV 1b-377-neo replicon cells; HCV 1b genotype; read-out: EC50 range against HCV 1b (Table 2, Range)
Method in brief: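 Compounds tested in HCV genotype 1b-377-neo replicon cells with a FRET read-out. Cells resistant to a reference NS5A inhibitor through a Y2065H NS5A mutation were run alongside wild-type cells.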

With `CC(C)[C@H](NS(C)(=O)=O)C(=O)N1CCC[C@H]1c1nc(-c2ccc(-c3ccc(-c4c[nH]c([C@@H]5CCCN5C(=O)[C@@H](NS(C)(=O)=O)C(C)C)n4)cc3)cc2)c[nH]1` [Example F66, N-((1S)-2-methyl-1-(((2S)-2-(4-(4′-(2-((2S)-1-((2S)-3-methyl-2-((methylsulfonyl)amino)butanoyl)-2-pyrrolidinyl)-1H-imidazol-4-yl)-4-biphenylyl)-1H-imidazol-2-yl)-1-pyrrolidinyl)carbonyl)propyl)methanesulfonamide] the EC50 was 1 to 99 nM.

With `CCS(=O)(=O)N[C@H](C(=O)N1CCC[C@H]1c1nc(-c2ccc(-c3ccc(-c4c[nH]c([C@@H]5CCCN5C(=O)[C@@H](NS(=O)(=O)CC)C(C)C)n4)cc3)cc2)c[nH]1)C(C)C` [Example F67, N-((1S)-1-(((2S)-2-(4-(4′-(2-((2S)-1-((2S)-2-((ethylsulfonyl)amino)-3-methylbutanoyl)-2-pyrrolidinyl)-1H-imidazol-4-yl)-4-biphenylyl)-1H-imidazol-2-yl)-1-pyrrolidinyl)carbonyl)-2-methylpropyl)ethanesulfonamide] the EC50 was 1 to 99 nM.

In the case of `C[C@H](NS(C)(=O)=O)C(=O)N1CCC[C@H]1c1nc(-c2ccc(-c3ccc(-c4cnc([C@@H]5CCCN5C(=O)[C@H](C)NS(C)(=O)=O)[nH]4)cc3)cc2)c[nH]1` [Example F69, N-((1S)-1-methyl-2-((2S)-2-(5-(4′-(2-((2S)-1-(N-(methylsulfonyl)-L-alanyl)-2-pyrrolidinyl)-1H-imidazol-4-yl)-4-biphenylyl)-1H-imidazol-2-yl)-1-pyrrolidinyl)-2-oxoethyl)methanesulfonamide], the EC50 is reported as 100 to 999 nM.

With `COC(=O)N[C@H](C(=O)N1CCC[C@H]1c1ncc(-c2ccc(-c3ccc(-c4[nH]c([C@@H]5CCCN5C(=O)[C@@H](NC(=O)OC)C(C)C)nc4CC4OCCCO4)cc3)cc2)[nH]1)C(C)C` [Example J14, methyl ((1S)-1-(((2S)-2-(4-(1,3-dioxan-2-ylmethyl)-5-(4′-(2-((2S)-1-((2S)-2-((methoxycarbonyl)amino)-3-methylbutanoyl)-2-pyrrolidinyl)-1H-imidazol-4-yl)-4-biphenylyl)-1H-imidazol-2-yl)-1-pyrrolidinyl)carbonyl)-2-methylpropyl)carbamate] the EC50 was 0.001 to 0.999 nM.

`COC(=O)N[C@H](C(=O)N1CCC[C@H]1c1ncc(-c2ccc(-c3ccc(-c4nc([C@@H]5CCCN5C(=O)[C@@H](NC(=O)OC)[C@@H](C)OC)[nH]c4CC(OC)OC)cc3)cc2)[nH]1)[C@@H](C)OC` [Example J14a, methyl ((1S,2R)-1-(((2S)-2-(4-(2,2-dimethoxyethyl)-5-(4′-(2-((2S)-1-(N-(methoxycarbonyl)-O-methyl-L-threonyl)-2-pyrrolidinyl)-1H-imidazol-4-yl)-4-biphenylyl)-1H-imidazol-2-yl)-1-pyrrolidinyl)carbonyl)-2-methoxypropyl)carbamate] was tested, and the EC50 was 0.001 to 0.999 nM.

`COC(=O)N[C@H](C(=O)N1CCC[C@H]1c1ncc(-c2ccc(-c3ccc(-c4nc([C@@H]5CCCN5C(=O)[C@@H](NC(=O)OC)C(C)C)[nH]c4CC(OC)OC)cc3)cc2)[nH]1)C(C)C` [Example J14a.1, methyl ((1S)-1-(((2S)-2-(4-(2,2-dimethoxyethyl)-5-(4′-(2-((2S)-1-((2S)-2-((methoxycarbonyl)amino)-3-methylbutanoyl)-2-pyrrolidinyl)-1H-imidazol-4-yl)-4-biphenylyl)-1H-imidazol-2-yl)-1-pyrrolidinyl)carbonyl)-2-methylpropyl)carbamate] gave an EC50 of 0.001 to 0.999 nM.

`COC(=O)Cc1[nH]c([C@@H]2CCCN2C(=O)[C@@H](NC(=O)OC)[C@@H](C)OC)nc1-c1ccc(-c2ccc(-c3cnc([C@@H]4CCCN4C(=O)[C@@H](NC(=O)OC)[C@@H](C)OC)[nH]3)cc2)cc1` [Example J14b, methyl (2-((2S)-1-(N-(methoxycarbonyl)-O-methyl-L-threonyl)-2-pyrrolidinyl)-4-(4′-(2-((2S)-1-(N-(methoxycarbonyl)-O-methyl-L-threonyl)-2-pyrrolidinyl)-1H-imidazol-4-yl)-4-biphenylyl)-1H-imidazol-5-yl)acetate] showed an EC50 of 0.001 to 0.999 nM.

With `COC(=O)Cc1[nH]c([C@@H]2CCCN2C(=O)[C@@H](NC(=O)OC)C(C)C)nc1-c1ccc(-c2ccc(-c3cnc([C@@H]4CCCN4C(=O)[C@@H](NC(=O)OC)C(C)C)[nH]3)cc2)cc1` [Example J14b.1, methyl (2-((2S)-1-(N-(methoxycarbonyl)-L-valyl)-2-pyrrolidinyl)-4-(4′-(2-((2S)-1-(N-(methoxycarbonyl)-L-valyl)-2-pyrrolidinyl)-1H-imidazol-4-yl)-4-biphenylyl)-1H-imidazol-5-yl)acetate] the EC50 was 0.001 to 0.999 nM.

`CCCc1[nH]c([C@@H]2CCCN2C(=O)[C@H](C)NC(=O)OC)nc1-c1ccc(-c2ccc(-c3cnc([C@@H]4CCCN4C(=O)[C@H](C)NC(=O)OC)[nH]3)cc2)cc1` [Example J14c, methyl ((1S)-2-((2S)-2-(4-(4′-(2-((2S)-1-(N-(methoxycarbonyl)-L-alanyl)-2-pyrrolidinyl)-4-propyl-1H-imidazol-5-yl)-4-biphenylyl)-1H-imidazol-2-yl)-1-pyrrolidinyl)-1-methyl-2-oxoethyl)carbamate] showed an EC50 of 0.001 to 0.999 nM.

Work on `CCCc1[nH]c([C@@H]2CCCN2C(=O)[C@@H](c2ccccc2)N(CC)CC)nc1-c1ccc(-c2ccc(-c3cnc([C@@H]4CCCN4C(=O)[C@@H](c4ccccc4)N(CC)CC)[nH]3)cc2)cc1` [Example J14c.1, (1R)-2-((2S)-2-(4-(4′-(2-((2S)-1-((2R)-2-(diethylamino)-2-phenylacetyl)-2-pyrrolidinyl)-1H-imidazol-4-yl)-4-biphenylyl)-5-propyl-1H-imidazol-2-yl)-1-pyrrolidinyl)-N,N-diethyl-2-oxo-1-phenylethanamine] yielded an EC50 of 0.001 to 0.999 nM.

In the case of `CCCc1[nH]c([C@@H]2CCCN2C(=O)[C@@H](NC(=O)OC)C(C)C)nc1-c1ccc(-c2ccc(-c3cnc([C@@H]4CCCN4C(=O)[C@@H](NC(=O)OC)C(C)C)[nH]3)cc2)cc1` [Example J14c.2, methyl ((1S)-1-(((2S)-2-(4-(4′-(2-((2S)-1-((2S)-2-((methoxycarbonyl)amino)-3-methylbutanoyl)-2-pyrrolidinyl)-1H-imidazol-4-yl)-4-biphenylyl)-5-propyl-1H-imidazol-2-yl)-1-pyrrolidinyl)carbonyl)-2-methylpropyl)carbamate], the EC50 is reported as 0.001 to 0.999 nM.

With `COC(=O)N[C@H](C(=O)N1CC(F)(F)C[C@H]1c1nc(-c2ccc(-c3ccc(-c4cnc([C@@H]5CCCN5C(=O)[C@@H](NC(=O)OC)C(C)C)[nH]4)c(F)c3)cc2)c[nH]1)C(C)C` [Example J14e, methyl ((1S)-1-(((2S)-4,4-difluoro-2-(4-(3′-fluoro-4′-(2-((2S)-1-((2S)-2-((methoxycarbonyl)amino)-3-methylbutanoyl)-2-pyrrolidinyl)-1H-imidazol-4-yl)-4-biphenylyl)-1H-imidazol-2-yl)-1-pyrrolidinyl)carbonyl)-2-methylpropyl)carbamate] the EC50 was 0.001 to 0.999 nM.

`CCN(CC)[C@@H](C(=O)N1CC(F)(F)C[C@H]1c1nc(-c2ccc(-c3ccc(-c4cnc([C@@H]5CCCN5C(=O)[C@@H](c5ccccc5)N(CC)CC)[nH]4)c(F)c3)cc2)c[nH]1)c1ccccc1` [Example J14e.1, (1R)-2-((2S)-2-(4-(4′-(2-((2S)-1-((2R)-2-(diethylamino)-2-phenylacetyl)-4,4-difluoro-2-pyrrolidinyl)-1H-imidazol-4-yl)-3-fluoro-4-biphenylyl)-1H-imidazol-2-yl)-1-pyrrolidinyl)-N,N-diethyl-2-oxo-1-phenylethanamine] was tested, and the EC50 was 0.001 to 0.999 nM.
